According to patent US20140186872A1, “BISACODYL AND ITS ANALOGUES AS DRUGS FOR USE IN THE TREATMENT OF CANCER” (CENTRE NATIONAL DE LA RECHERCHE SCIENTIFIQUE- CNRS, priority 2011, published 2014):
Where two headings read alike, the source gives them in different places.

Legend:
[1] = system: proliferating TG1 glioblastoma stem cells; test: ATP-Glo (Cell Titer Glo) cell viability, dose/response, proliferating TG1 cells; type: cell-based, human; settings: for effect on survival of proliferating TG1 cells: own culture medium
Procedure: The TG1 proliferating cells correspond to cells for which medium is renewed regularly, twice weekly.
The proliferating cells were put back in 1 mL of fresh NS34 medium, dissociated mechanically by pipetting up and down 100 times with a P1000 micropipette preset to 400 μl and counted with Trypan Blue, after dilution in fresh NS34 medium, to obtain a final suspension of 6×10^5 cells/mL.
(§1) 50 μl of solution containing cells was deposited per well in a 96-well plate (Greiner #655090).
(§2) The test compounds, in solution of 100% of DMSO were diluted in culture medium: in the absence of DMSO (medium 0% DMSO) or in the presence of 2% of DMSO (medium 2% DMSO) at concentrations of 200 μM, 100 μM, 80 μM, 60 μM, 40 μM, 20 μM, 10 μM and 2 μM. For all these dilutions the final concentration in DMSO was 2% (see Table 1 below; volumes shown make it possible to construct dose/response curves, in triplicate, for 1 compound on a 96-well plate—FIG. 1)
50 μL of solution of compound was added at the concentrations specified above to 50 μL of cells in the plate (FIG. 1) (Final concentration of compounds in contact with the cells: 100 μM, 50 μM, 40 μM, 30 μM, 20 μM, 10 μM, 5 μM, 1 μM (in 1% of final DMSO). Final concentration of positive control: 50 μM in 1% of final DMSO. Final concentration of negative control: 1% final DMSO). […]
(§3) The test of cell viability was carried out using the Cell Titer Glo kit (Promega #G7571). After thawing of the Cell Titer Glo reagent (1 Buffer vial+1 Substrate vial per plate) protected from the light, the contents of the Buffer vial were transferred to the Substrate vial. 100 μl of Cell Titer Glo reagent was deposited on the cells treated with the compounds.
(§4) The results, which were given for each well in strokes per second (sps), were converted to percentage cell survival relative to the control 1% of DMSO, which was fixed at 100%.
(§5) The EC50 was determined as the concentration that gives 50% of the response.
(§6) Glioblastoma (WHO grade IV glioma) stem cells (TG1, TG16 and OB1) were derived from tumor samples of 3 patients at Sainte Anne Hospital (Paris, France), as previously described (48) and expanded as neurosphere cultures. In continuously proliferating cultures, neurospheres were mechanically dissociated into a single-cell suspension twice a week with 90% renewal of their culture medium. Quiescent glioblastoma stem cells were obtained by non-renewal of the culture medium for 9-16 days following cell seeding. The non-proliferating state was assessed by decreased ability of the cells to incorporate EdU (5-ethynyl-2′-deoxyuridine) using the Click-iT™ EdU Flow Cytometry Assay Kit (Invitrogen, France) according to the manufacturer's instructions. […]
(§7) Confirmed hit compounds from the primary and secondary screens were purchased from Prestwick Chemical and dissolved in DMSO to obtain 10 mM concentrated stock solutions. Hit compound validation was obtained through dose-response curves on the viability of TG1 glioblastoma stem cells under the same experimental conditions (cell density, treatment duration) as described for the primary and secondary screens. Each compound was tested in triplicate in at least three independent experiments on proliferating and quiescent glioblastoma stem TG1 cells.
(§8) The EC50 value was determined for each compound by fitting the data points according to the following equation: […]
(§9) where y represents the expected response (expressed as a percentage of cell viability), x is the chemical compound concentration, Smax and Smin are the maximum and minimum viability responses recorded, respectively, and n is the Hill coefficient. Curve fitting was performed using the Microsoft Excel Solver component.

[2] = system: quiescent TG1 glioblastoma stem cells; test: ATP-Glo (Cell Titer Glo) cell viability, dose/response, quiescent TG1 cells; type: cell-based, human; settings: for EC50: Homo sapiens, quiescent TG1 cells, ATP-Glo, read-out: concentration leading to 50% of effect (EC50); for EC50 / effect on survival of quiescent TG1 cells (words) / cytotoxicity to quiescent TG1 cells: 24 h; for effect on survival of quiescent TG1 cells (words): own conditioned medium; for cytotoxicity to quiescent TG1 cells: 10 μM
Procedure: The TG1 cells were put into quiescence by keeping the cells in culture without changing the medium from 9 to 16 days. The state of quiescence was verified by non-incorporation of nucleotides into the DNA of the cells (see example 9).
The quiescent cells were put back in 1 mL of conditioned medium, dissociated mechanically by pipetting up and down 100 times with a P1000 micropipette preset to 400 μl and counted with Trypan Blue, after dilution in conditioned medium, to obtain a final suspension of 8.10^5 cells/mL.
as §1, §2
50 μL of solution of compound was added at the concentrations specified above to 50 μL of cells in the plate (FIG. 1) (Final concentration of compounds in contact with the cells: 100 μM, 50 μM, 40 μM, 30 μM, 20 μM, 10 μM, 5 μM, 1 μM (in 1% of final DMSO). Final concentration of positive control: 50 μM in 1% of final DMSO. Final concentration of negative control: 1% final DMSO).
The cells were incubated for 23 to 24 hours at 37° C. in an incubator in the presence of 5% CO2 (under humid atmosphere at 95% provided by a reservoir filled with distilled water).
as §3, §4, §5, §6, §7, §8, §9

[3] = system: human fetal neural stem cells (f-NSC cells); test: ATP-Glo cell viability on fetal neural stem cells; type: cell-based
[4] = system: human primary astrocytes (HA cells); test: ATP-Glo cell viability on human astrocytes; type: cell-based
Description: Primary human astrocytes (HA cells) were expanded in AM Medium (both from ScienCell Research Laboratories, Carlsbad Calif.) according to the manufacturer's instructions.

[5] = Stability of the test compounds in the culture medium (HPLC); type: physicochemical; settings: for half-life at 10 μM: 1% DMSO, 37° C., HPLC
Procedure: A mass m was weighed with an analytical balance and a volume V of DMSO was added.
The solution of the compound at 10 mM was diluted to 1/10, still in DMSO.
The latter solution was diluted to 1/100 in medium in order to obtain a final concentration of 10 μM and 1% of DMSO.
After homogenizing (2 min), 150 μl was taken and was mixed with 150 μl of acetonitrile to precipitate the proteins present in the medium, which corresponds to a dilution to ½.
The mixture was vortexed for 1 min and then centrifuged for 10 min at 15000 g.
The supernatant was again diluted to ½ with 1 volume of milliQ water and then injected in HPLC.
The same treatment was carried out at times 2 h, 4 h, 6 h and 24 h.
The solutions were analysed in HPLC using a Gilson chain equipped with a diode array detector and of an automatic injector with an injection loop of 20 μl.
10 μM solutions of Bisacodyl and DDPM were prepared in proliferating or quiescent glioblastoma stem cell culture medium in the presence of 1% DMSO. Following protein precipitation (with acetonitrile), samples were analyzed by HPLC after 0, 2, 4, 6 and 24 h of incubation at 37° C.

[6] = system: U-87 MG glioblastoma cell line; test: ATP-Glo cell viability on U-87 MG cells; settings: for cytotoxic effect on U-87 MG cells: 24 h
Procedure: (§10) The cells were passed 2 or 3 days before the experiment. On that very day, the cells are detached with trypsin according to the above protocol, then centrifuged for 10 minutes at 800 rpm.
(§11) The supernatant was removed and the cells were resuspended in culture medium, then counted and finally diluted to give a final suspension of 10^6 cells/mL.
(§12) 7 mL of cellular suspension at 10^6 cells/mL was prepared for each test compound.
The glioblastoma U-87 MG cell line was purchased from ATCC and expanded in Eagle's Minimum Essential Medium (EMEM) (ATCC) supplemented with 10% fetal bovine serum (FBS) (Invitrogen, France) and 1% penicillin/streptomycin (Invitrogen, France).
The pH of the medium solution was then adjusted to values varying between 7.4 and 6.0 with 1M HCl or a sodium acetate buffer (0.1 M pH=4). The culture media were placed in a CO2 cell culture incubator settled to 5% CO2 and 37° C. for 1 hour. The pH was measured again and re-adjusted to the expected values if necessary and culture media were filter-sterilized (0.22 μm filter) prior to their use. The toxicity of DDPM (10 or 100 μM) on proliferating and quiescent TG1 cells was then assessed under the same conditions as those described in the previous section. pH dependency of lead compounds was also assessed for the glioblastoma U-87 MG cell line and on normal fetal neural stem cells and primary human astrocytes in their respective culture media (adjusted to pH 7.4 or 6.2) with HCl (1M) or a sodium acetate buffer (0.1 M pH=4).

HEK293 cells = test: ATP-Glo cell viability on HEK 293 cells
Procedure: as §10, §11, §12
Human Embryonic Kidney 293 cells (HEK 293 cells) were expanded in Minimum Essential Medium (MEM) with 2 mM L-Glutamine, 100 UI/ml-100 μg/ml Penicillin/Streptomycin and 10% FBS.

[7] = system: caspase 3/7 activity in proliferating and quiescent TG1 cells; test: Apo-ONE Homogeneous Caspase-3/7 Assay in TG1 cells; type: cell-based, human
Procedure: Proliferating (30 000 cells/well) and quiescent (40 000 cells/well) TG1 cells were suspended in freshly prepared culture medium (pH=7.3) or acidified freshly prepared culture medium (pH=6.4) and treated with increasing concentrations of the lead compounds for 24 hours. Following treatment, apoptosis was measured with the Apo-ONE Homogeneous Caspase-3/7 Assay from Promega according to the manufacturer's instructions. Staurosporine (Sigma, Aldrich) and culture medium were used as positive and negative controls, respectively.

[8] = system: quiescent TG1 glioblastoma stem cells; test: ATP-Glo (Cell Titer Glo) cell viability, dose/response, quiescent TG1 cells; type: cell-based, human; settings: treated 24 h in freshly prepared non-conditioned medium, versus own medium
[9] = 100 μM, acidification with sodium acetate buffer, versus HCl

SMILES: CC(=O)Oc1ccc(C(c2ccc(OC(C)=O)cc2)c2ccccn2)cc1 [Compound 1, Bisacodyl]
- effect on survival of proliferating TG1 cells ([1]; 24 h): not on TG1 cells proliferating continuously
- EC50 [2]: 1 µM
- effect on survival of quiescent TG1 cells (words) ([2]; listed as Bisacodyl): only active on TG1 cells in quiescence
- effect on survival of quiescent TG1 cells (words) ([2]; listed as bisacodyl): more selective effects
- effect on survival / toxicity, f-NSC cells [3]: does not display any toxicity
- cell survival of f-NSC cells ([3]; concentrations of compound up to 100 μM): over 90%
- toxicity for HA cells [4]: does not display any toxicity
- Emax ([4]; Homo sapiens, Astrocyte, not due to cell death, read-out: maximum effect on HA cells: reduction of ATP levels): 30%
- survival of human astrocytes (HA) ([4]; concentrations above 10 μM): 60%
- half-life at 10 μM ([5]; read-out: half-life in the medium of the proliferating cells (converted)): 2 h
- half-life at 10 μM ([5]; quiescent glioblastoma stem cell culture medium (no cells), read-out: half-life in the medium of the quiescent cells (converted)): 4 h
- survival of U-87 MG cells ([6]; concentrations between 10 and 100 μM): 90%
- toxicity for HEK293 cells (HEK293 cells): does not display any toxicity
- survival of HEK293 cells (HEK293 cells; 10 μM): 100%
- survival of HEK293 cells (HEK293 cells; 100 μM): 80%

SMILES: Oc1ccc(C(c2ccc(O)cc2)c2ccccn2)cc1 [Compound 2, 4,4′-(Pyridin-2-ylmethylene)diphenol]
- survival of proliferating TG1 cells ([1]; 10 μM, 24 h, acidic medium (HCl)): also decreased
- effect on proliferating TG1 cells [1, 9]: more pronounced
- survival of TG1 glioblastoma cancer stem cells (ATP level) ([1]; NS34 medium pH 7.35 or 6.2, 24 or 72 h, Example 13): decreases the survival
- effect on survival of proliferating TG1 cells ([1]; 24 h): a little more marked
- effect on survival of proliferating TG1 cells ([1]; 24 h, listed as DDPM): minor effect
- cytotoxic activity on proliferating TG1 cells after media exchange ([1]; treated 24 h in conditioned quiescent cell medium, versus own medium): more pronounced cytotoxic activity
- cytotoxicity to quiescent TG1 cells ([2]; pH values above 7): little or no effect
- cytotoxicity to quiescent TG1 cells ([2]; slightly acidic conditions (HCl)): cytotoxic
- effect on quiescent TG1 cells [2, 9]: more pronounced
- EC50 [2]: ~1 µM
- effect on survival of quiescent TG1 cells (words) [2]: effect comparable to bisacodyl
- effect on survival of quiescent TG1 cells (words) ([2]; listed as DDPM): high cytotoxicity
- effect on ATP levels of human astrocytes ([4]; pH 7.4 versus 6.2, related to cell death): pH dependent reduction of ATP levels
- change in concentration in the culture media (stability) ([5]; proliferating and quiescent culture medium, up to 24 h): No change
- caspase 3/7 activity ([7]; pH 6.4, 24 h, proliferating and quiescent TG1 cells): stimulates caspase 3/7 activity in a dose-dependent manner
- pro-apoptotic effect (caspase 3/7 activity) ([7]; physiological pH (pH 7.3), 24 h): not observed
- effect on quiescent TG1 cells after media exchange [8]: significantly reduced
- percentage of U-87 cell death ([6]; acidic pH adjusted with sodium acetate buffer, versus HCl): even higher
- cytotoxic effect on U-87 MG cells ([6]; pH 6.2 set with 1M HCl, versus physiological pH): significantly higher
- cytotoxic effect on U-87 MG cells ([6]; physiological pH): no cytotoxic effect
